Measured values published in patent US8835500B2, “Pharmaceutical formulations of amyloid inhibiting compounds” (BHI Limited Partership, priority 2003, dated 2014).

What was measured:
[1] = Crossing of the blood/brain barrier; set-up: species or system human; conditions: in vivo
CSF Aβ42 = CSF Aβ42 and Aβ42/Aβ40 ratio in mild-to-moderate AD patients; assay type: in vivo, human
Procedure: FIG. 1 Change from Baseline CSF Aβ42 versus 3-APS doses
FIG. 2 Effect of 3-APS on CSF Aβ42/40 Ratio in Mild-to-Moderate AD Patients—Placebo vs. 150 mg BID

[2] = dog, in vivo
Procedure: (§1) Furthermore, the non-hygroscopic nature of the acid form makes it desirable as active pharmaceutical ingredient. To further protect against any possible gastrointestinal intolerance that could result from the acid form, the tablets were enteric-coated and a modified-release agent was added to control any rapid release of the drug in the stomach and the intestine, respectively.

[3] = Pharmacokinetics of NC-758-1 in mild to moderate Alzheimer's Disease patients, 12 weeks BID (Example 10); assay type: in vivo; conditions: human, plasma, oral, AD patients; for AUC(0-inf): only patients with estimable elimination rate constant; for Tmax: median
Excerpt: (§2) In the following examples and elsewhere herein, terms are as defined below. The pharmacokinetic parameters were derived by non-compartmental analysis using WinNonlin Version 2.1. • Cmax—the maximum observed plasma concentration. • Tmax—the time of occurrence of Cmax. • AUC0-t—the area under the plasma concentration versus time curve from time zero to the last sampling time at which concentrations were at or above the limit of quantification, calculated by the linear trapezoidal rule. • AUC∞—the area under the plasma concentrations versus time curve from time zero to infinity, calculated from AUC0-t+(Clast/λz), where Clast is the last observed quantifiable concentration and λz is the apparent terminal rate constant. • t1/2—the apparent terminal half-life, calculated from 1n 2λz.
A multicenter, randomized, double-blind, placebo-controlled and parallel designed study has been completed with NC-758-1 from Table 5 above in patients suffering from mild to moderate Alzheimer's Disease (AD). This study included assessing the pharmacokinetic/pharmacodynamic profile in AD patients.
A total of fifty-eight (58) mild to moderate AD patients (MMSE scores=13 to 26) were enrolled from 6 centers in the United States. Patients were randomized to receive in 1:1:1:1 ratio of NC-758-1 at 50, […], 150 mg BID or placebo BID for 12 weeks. Study medication was administered orally (tablet). Each patient was evaluated on 6 occasions at screening, baseline [Week 0], weeks 2, 4, 8 and 12. Blood samples were collected from each patient prior to dosing and at specified time points through 12 h post-dose after the first dose (Week 0) and the last dose (Week 12). Blood samples were also collected prior to the first dose of the day during Week 2, 4 and 8 visits.

[4] = Single rising oral dose pharmacokinetics of NC-758 in healthy young and elderly male volunteers (Example 7); assay type: in vivo, human; conditions: for Tmax: median
Excerpt: as §2
The pharmacokinetic profile and the effect of food on single rising oral doses of 3-APS free acid (modified-release enteric-coated tablet, as described in Table 3 above, hereinafter “NC-758”) in healthy male young (18-45 years) volunteers was determined. The pharmacokinetics of a single oral dose of NC-758 was also determined in a group of healthy male elderly (≧55 years old) volunteers. The test was a randomized, double-blind, placebo-controlled study to assess the pharmacokinetic profile of 4 single rising oral doses of NC-758 in healthy young (18-45 years) male subjects. Blood samples were collected during 24 h following dosing. Plasma concentrations of 3-APS were determined using a validated LC-MS/MS method.

[5] = Pharmacokinetics of NC-758-1 in mild to moderate Alzheimer's Disease patients, 12 weeks BID (Example 10); assay type: in vivo; conditions: human, plasma, oral, AD patients; for Tmax: median
[6] = Part I: multiple rising oral dose pharmacokinetics of NC-758 in healthy young and elderly subjects (Example 8); assay type: in vivo, human; conditions: fasted; for Tmax: median
Excerpt: as §2
The pharmacokinetic profile of multiple rising oral doses of 3-APS free acid (NC-758 of Table 3 above) in healthy male young subjects (18-45 years) and healthy male and female elderly (≧55 years) subjects was assessed. The pharmacokinetic profile of a titrated multiple oral rising dose regimen of NC-758 was also assessed in one group of healthy male young (18-45 years) subjects. […] Part I was a randomized, double-blind, placebo-controlled study to assess the pharmacokinetic profile of 2 multiple rising oral doses of NC-758 in healthy young (18-45 years) male subjects. […] In Part I, blood samples were collected through 24 h after the first dose on Day 1, before each morning dose on Days 2 to 11, and through 48 h after the final dose on Day 12. For Part II, blood samples were collected through 36 and 48 h, respectively. Plasma concentrations of 3-APS were determined using a validated LC-MS/MS method.

[7] = Hygroscopic nature of the active ingredient; assay type: physicochemical
[8] = Single oral dose pharmacokinetics of NC-758-1 in healthy elderly volunteers (Example 9); assay type: in vivo, human; conditions: elderly (≧55 years) male and female subjects, fasted; for Tmax: median
Excerpt: as §2
The pharmacokinetic profile and the effect of food on single oral doses of 3-APS free acid (modified-release enteric-coated tablet as described in Table 5 above, hereinafter “NC-758-1”) in healthy male and female elderly (≧55 years) volunteers. The test was an open label, three-period crossover study to assess the pharmacokinetic profile of 3 single oral doses of NC-758-1 in healthy elderly (≧55 years) male and female subjects. The blood samples were collected during 24 h following dosing. Plasma concentrations of 3-APS were determined using a validated LC-MS/MS method.

[9] = Gastrointestinal symptoms after administration of solid dosage form (capsules); assay type: in vivo
Procedure: as §1

[10] = 50 mg, Alzhemed (NC-758-1) 50 mg BID, Week 0 (single dose), mean
[11] = 150 mg, Alzhemed (NC-758-1) 150 mg BID, Week 0 (single dose), mean
[12] = 200 mg dose, elderly vs. young (Tables 9 and 10)

NCCCS(=O)(=O)O [3-APS, 3-amino-1-propanesulfonic acid]
crossing of the blood/brain barrier [1]: crossed the blood/brain barrier
ratio of Aβ42/Aβ40 (CSF Aβ42; CSF, mild-to-moderate AD patients, FIGS. 2, 3 and 4): reduced the ratio of Aβ42/Aβ40
baseline CSF Aβ42 (CSF Aβ42; FIG. 1): reduced baseline CSF Aβ42
tolerability [2]: better tolerated than the sodium salt form
AUC(0-t) [3, 10]: ~1320 ng·h/mL
Cmax [3, 10]: ~310 ng/mL
AUC(0-inf) [3, 10]: ~1400 ng·h/mL
Tmax ([3]; 50 mg, Alzhemed (NC-758-1) 50 mg BID, Week 0 (single dose)): ~6 h
Cmax [3, 11]: ~624 ng/mL
AUC(0-inf) [3, 11]: ~3420 ng·h/mL
Tmax ([3]; 150 mg, Alzhemed (NC-758-1) 150 mg BID, Week 0 (single dose)): ~6 h
Cmax ([3]; 150 mg, Alzhemed (NC-758-1) 150 mg BID, Week 12 (repeated), mean): 639 ng/mL
AUC0-t greater in elderly subjects compared to young subjects [4, 12]: approximately 70%
Cmax greater in elderly subjects compared to young subjects [4, 12]: approximately 70%
Tmax ([4]; NC-758 single oral 200 mg, elderly (>55 years) male subjects, fasted): 5 h
Tmax ([4]; NC-758 single oral 200 mg, young (18-45 years) male subjects, fasted): 5 h
Tmax ([4]; NC-758 single oral 300 mg, young (18-45 years) male subjects, fasted): 5 h
Tmax ([4]; human, plasma, NC-758 single oral 100 mg, young (18-45 years) male subjects, fasted, read-out: Tmax): 5 h
AUC(0-inf) ([4]; human, plasma, NC-758 single oral 200 mg, elderly (>55 years) male subjects, fasted, calculated for one individual only): 5760 ng·h/mL
Cmax ([5]; 50 mg, Alzhemed (NC-758-1) 50 mg BID, Week 12 (repeated), mean): 451 ng/mL
AUC(0-t) ([5]; 50 mg, Alzhemed (NC-758-1) 50 mg BID, Week 12 (repeated), mean, read-out: AUC0-t (AUCss for Week 12)): 1980 ng·h/mL
Tmax ([5]; 50 mg, Alzhemed (NC-758-1) 50 mg BID, Week 12 (repeated)): 3 h
Cmax ([5]; 100 mg, Alzhemed (NC-758-1) 100 mg BID, Week 0 (single dose), mean): ~618 ng/mL
AUC(0-inf) ([5]; 100 mg, Alzhemed (NC-758-1) 100 mg BID, Week 0 (single dose), mean, only patients with estimable elimination rate constant): ~2570 ng·h/mL
AUC(0-t) ([5]; 100 mg, Alzhemed (NC-758-1) 100 mg BID, Week 0 (single dose), mean, read-out: AUC0-t): ~2470 ng·h/mL
Tmax ([5]; 100 mg, Alzhemed (NC-758-1) 100 mg BID, Week 0 (single dose)): ~4.7 h
Cmax ([5]; 100 mg, Alzhemed (NC-758-1) 100 mg BID, Week 12 (repeated), mean): 538 ng/mL
AUC(0-t) ([5]; 100 mg, Alzhemed (NC-758-1) 100 mg BID, Week 12 (repeated), mean, read-out: AUC0-t (AUCss for Week 12)): 2590 ng·h/mL
Tmax ([5]; 100 mg, Alzhemed (NC-758-1) 100 mg BID, Week 12 (repeated)): 3.5 h
AUC(0-t) ([5]; 150 mg, Alzhemed (NC-758-1) 150 mg BID, Week 0 (single dose), mean, read-out: AUC0-t): ~2790 ng·h/mL
AUC(0-t) ([5]; 150 mg, Alzhemed (NC-758-1) 150 mg BID, Week 12 (repeated), mean, read-out: AUC0-t (AUCss for Week 12)): 3570 ng·h/mL
Tmax ([5]; 150 mg, Alzhemed (NC-758-1) 150 mg BID, Week 12 (repeated)): 3 h
Tmax ([6]; NC-758 200 mg BID, Day 1, elderly (≧55 years) male and female subjects): 6 h
Tmax ([6]; NC-758 200 mg BID, Day 12, young (18-45 years) male subjects): 4 h
Tmax ([6]; both sexes, human, plasma, oral, 200 mg, NC-758 200 mg BID, Day 12, elderly (≧55 years) male and female subjects, read-out: Tmax): 5 h
AUC(0-t) ([6]; human, plasma, oral, NC-758 100 mg BID, Day 1, young (18-45 years) male subjects, mean, read-out: AUC0-12 h): 1330 ng·h/mL
Tmax ([6]; male, human, plasma, oral, 100 mg, NC-758 100 mg BID, Day 1, young (18-45 years) male subjects, read-out: Tmax): 6 h
Tmax ([6]; male, human, plasma, oral, 100 mg, NC-758 100 mg BID, Day 12, young (18-45 years) male subjects, read-out: Tmax): 2.5 h
Tmax ([6]; male, human, plasma, oral, 200 mg, NC-758 200 mg BID, Day 1, young (18-45 years) male subjects, read-out: Tmax): 4 h
hygroscopic nature [7]: non-hygroscopic
Tmax ([8]; NC-758-1 single oral 50 mg): 5 h
Tmax ([8]; NC-758-1 single oral 100 mg): 5 h
AUC∞ ([8]; NC-758-1 single oral 150 mg, mean, only subjects with estimable elimination rate constant): 4497 ng·h/mL
Tmax ([8]; NC-758-1 single oral 150 mg): 5 h

NCCCS(=O)(=O)[O-].[Na+] [3-amino-1-propanesulfonic acid, sodium salt]
gastrointestinal symptoms (i.e. nausea and vomiting) [9]: associated with gastrointestinal symptoms
